Patent US4554275A, “Triazine derivatives” (Nippon Shinyaku Co., Ltd., priority 1982, dated 1985)

Columns and labels:
Carrageenin Edema = test: Carrageenin edema inhibitory action (rat hind paw swelling); format: in vivo, male rats (SLC-SD strain); conditions: po, 3 h, 400 mg/kg orally, one hour before 0.1 ml of 0.5% carrageenin into right hind paw, measured three hours later, vs control group, read-out: Carrageenin Edema Inhibitory Rate (%)
Description: Five male rats (SLC-SD strain, five weeks age, supplied by Seidokyo) were used in one group in the experiment. Drugs to be tested were given orally at a dose of 400 mg/kg and, one hour later, 0.1 ml of 0.5% carrageenin was injected subcutaneously to right hind paw. Three hours later, volumes of the right hind paws were measured, volumes of the paws before the carrageenin injection were deducted therefrom, and the resulting volumes were defined as a degree of swelling.
The inhibitory rates were calculated from mean degree of swelling of the drug-administered groups and the control group and the result is shown in Table 1.

male mice = conditions: mouse, in vivo, po, 2000 mg/kg

Structure (SMILES) | inhibition in vivo at 400 mg/kg (Carrageenin Edema) [%] | Acute toxicity (male mice)
COc1cc2ccccc2cc1-c1nc(N)nc(N)n1 [Example 1, 2,4-diamino-6-(2-methoxy-3-naphthyl)-s-triazine] | 60.3 | no toxicity was observed
COc1ccc(-c2nc(N)nc(NC(=O)c3cccnc3)n2)c2ccccc12 [Example 2, 2-amino-4-nicotinoylamino-6-(1-methoxy-4-naphthyl)-s-triazine] | 34.7 | no toxicity was observed
Nc1nc(NC(=O)c2cccnc2)nc(-c2cc3ccccc3cc2F)n1 [Example 3, 2-amino-4-nicotinoylamino-6-(2-fluoro-3-naphthyl)-s-triazine] | 56.5 | no toxicity was observed
Nc1nc(N)nc(-c2cc3ccccc3cc2OCc2ccccc2)n1 [Example 5, 2,4-diamino-6-(2-benzyloxy-3-naphthyl)-s-triazine] | 30.4 | 
Nc1nc(N)nc(-c2ccc(OCc3ccccc3)c3ccccc23)n1 [Example 6, 2,4-diamino-6-(1-benzyloxy-4-naphthyl)-s-triazine] | 30.9 | 
COc1ccc2ccccc2c1-c1nc(N)nc(N)n1 [Example 7, 2,4-diamino-6-(2-methoxy-1-naphthyl)-s-triazine] | 44.6 | 
COc1ccc(-c2nc(N)nc(N)n2)c2ccccc12 [Example 9, 2,4-diamino-6-(1-methoxy-4-naphthyl)-s-triazine] | 52.4 | no toxicity was observed
Nc1nc(N)nc(-c2ccc3cc(OCc4ccccc4)ccc3c2)n1 [Example 10, 2,4-diamino-6-(2-benzyloxy-6-naphthyl)-s-triazine] | 50.3 | 
Nc1nc(N)nc(-c2cc3ccccc3cc2F)n1 [Example 11, 2,4-diamino-6-(2-fluoro-3-naphthyl)-s-triazine] | 48.8 | 
Nc1nc(N)nc(-c2cc3ccccc3cc2Cl)n1 [Example 12, 2,4-diamino-6-(2-chloro-3-naphthyl)-s-triazine] | 61.3 | no toxicity was observed
Nc1nc(N)nc(-c2cc3ccccc3cc2Br)n1 [Example 13, 2,4-diamino-6-(2-bromo-3-naphthyl)-s-triazine] | 49.1 | 
Nc1nc(N)nc(-c2ccc(Cl)c3ccccc23)n1 [Example 14, 2,4-diamino-6-(1-chloro-4-naphthyl)-s-triazine] | 42.6 | 
Nc1nc(N)nc(-c2ccc(Br)c3ccccc23)n1 [Example 15, 2,4-diamino-6-(1-bromo-4-naphthyl)-s-triazine] | 48.4 | 
COc1ccc2cc(-c3nc(N)nc(N)n3)ccc2c1 [Example 16, 2,4-diamino-6-(2-methoxy-6-naphthyl)-s-triazine] | 51.1 | 
Nc1nc(NC(=O)c2cccnc2)nc(-c2ccc3ccccc3c2)n1 [Example 18, 2-Amino-4-nicotinoylamino-6-beta-naphthyl-s-triazine] | 24.8 | no toxicity was observed
COc1cc2ccccc2cc1-c1nc(N)nc(NC(=O)c2cccnc2)n1 [Example 19, 2-amino-4-nicotinamido-6-(2-methoxy-3-naphthyl)-s-triazine] | 35 | 
Nc1nc(NC(=O)c2cccnc2)nc(-c2ccc3cc(OCc4ccccc4)ccc3c2)n1 [Example 23, 2-amino-4-nicotin-amido-6-(6-benzyloxy-2-naphthyl)-s-triazine] | 28.1 | no toxicity was observed
Nc1nc(NC(=O)c2cccnc2)nc(-c2ccc(Cl)c3ccccc23)n1 [Example 24, 2-amino-4-nicotinamido-6-(1-chloro-4-naphthyl)-s-triazine] | 25 | no toxicity was observed
Nc1nc(NC(=O)c2cccnc2)nc(-c2ccc(Br)c3ccccc23)n1 [Example 25, 2-amino-4-nicotinamidio-6-(1-bromo-4-naphthyl)-s-triazine] | 25.1 | 
Nc1nc(NC(=O)c2cccnc2)nc(-c2cc3ccccc3cc2Br)n1 [Example 27, 2-amino-4-nicotinamido-6-(2-bromo-3-naphthyl)-s-triazine] | 33.5 | 
Nc1nc(NC(=O)c2cccnc2)nc(-c2ccc3ccccc3c2O)n1 [Example 28, 2-amino-4-nicotinamido-6-(1-hydroxy-2-naphthyl)-s-triazine] | 19.4 | no toxicity was observed
